Source: US5594032A, “Amelioration of human erectile dysfunction by treatment with iNOS, inducers of iNOS or iNOS cDNA” (priority 1994, dated 1997)

Assays:
Male Fischer 344 rats = assay: Erectile response (maximal intracavernosal pressure) to electrical field stimulation of the cavernosal nerve; format: in vivo, rat; conditions: for inhibition of the erectile response: sub-optimal dose
Experimental: Male Fischer 344 rats from three age groups designated "adult" (5-month old), "old" (20 month old), and "very old" (28-32 month old) rats, were anesthetized with an intraperitoneal injection of sodium […] (pentobarbital) at 50 mg/kg. The definition of these age groups in terms of relative aging corresponds to conventional designations for the Fisher 344 strain of rats (maximal life span approximately 34-36 months; optimum breeding activity 2.5-8 months). The adult and very old rats were retired breeders whenever possible. Animals were maintained under controlled lighting and were treated according to NIH regulations. The number of animals in each group for each individual experiment is indicated in the corresponding figure.
A transversal suprapubic skin incision (5 mmm) was done to expose the penis angle and its proximal portion. The right corpora cavernosa was then cannulated with a 27-gauge needle attached to a vinyl tubing (Bolab/bb317-85 Arizona) which was connected with an ALZET^R osmotic pump (Alza Corporation, Palo Alto, Calif.). Each pump (100 or 200 ul reservoir volume, as indicated) contained a mix of E. coli lipopolysaccharide (LPS) at 1 ug/ml, recombinant rat […] (IFN-γ) at 2,500 U/ml, recombinant human tumor necrosis factor-(TNF-α) at 2,500 U/ml, and recombinant human interleukin-1β (IL-1β) at 50 ng/ml.
The needle and the tubing were fixed to the penis peripheral tissues by Mersilene* 6-0 suture and the osmotic pump was placed subcutaneously on the rat abdomen. […] The incision was closed by layer using Dexon* Plus 4-0 suture and the success of the operation was checked all throughout the experiment by observation of a normal recovery and urinary activity. These criteria were completed by verifying the absence of peripheral hematomas or inflammation when the pump was removed. Each pump delivered the inducer mix by osmotic pressure through the catheter directly into the corpora cavernosa, either at 1 ul/hr during 3 days (pump 1003D) or at 0.5 ul/hr during 14 days (pump 2002).
At the completion of each treatment rats were anesthetized as in Example 1 and the erectile response was measured by a modification of a published procedure. Briefly, the cavernosal nerve was surgically exposed and stimulated with a square pulse stimulator connected to a platinum bipolar electrode positioned on the nerve. Through a needle inserted into the cavernosa, the intracavernosal pressure was recorded with a pressure transducer connected to a recorder that was calibrated with a manometer in order to express the response in mm of mercury. The animals were reinjected every 45 min with 35 mg/kg of ketamine for the whole duration of the experiment (about 2-3 hours).
Each rat was submitted to the following sequential treatments done in duplicate: a) electrical field stimulation (EFS) at a frequency of 15 Hz for pulses of 30 sec, separated for 5 min intervals, for the voltage response curve, at […], 2.5, 5 and 10 volts, in this order; b) EFS at 10 volts with the nitric oxide synthase (NOS) inhibitor N -nitro-L-arginine methy ester (L-NAME) at 2 mg/kg, at a single dose per animal, recording 30 min. after injection. In some animals, the systemic blood pressure was measured at the beginning of the experiment, by intrafemoral cannulation and recording as above. Means and standard deviations were determined for the intracavernosal pressure values, and the statistical significance was obtained by the paired Student's t test.

penile NOS = assay: NOS activity in penile cytosol, (3-H) L-arginine to (3-H) citrulline conversion; format: biochemical, rat; conditions: cytosol of inducer-treated rats
Experimental: Six adult rats were implanted with 100 ul pumps for 3 days, and then the pumps were replaced by similar ones with fresh solution as indicated in Example 2. Three animals had the pumps containing the inducer mix and three had saline as a control. At the end of the experiment the animals were anesthetized as indicated above and the penis (including the bulb), liver, and in some animals the cerebellum were surgically removed. The penile head and skin were excised and the organs were stored under liquid nitrogen.
NOS activity was determined from tissue homogenates from two treated and two control rats, not subjected to EFS in order to avoid the interference with residual L-NAME from the in vivo experiments and EFS-induced changes in NOS activity. […] After eliminating the residual (3-H)L-arginine through the resin, (3-H) citrulline was counted in the trichloroacetic acid ether-extracted supernatant. All values were corrected by the radioactivity eluted in time zero incubations.

[1] = test system: rat penis smooth muscle cells (RPSMC); assay: Nitrite accumulation in medium of rat penis smooth muscle cell cultures (Greiss reagent); format: cell-based
Experimental: Primary cultures of RPSMC were initiated from small pieces of penile tissue excised from 3 months old Sprague Dawley rats, utilizing Dulbecco's modified Eagle medium (DMEM) with 20% fetal calf serum, at 37° C. in the presence of 5% CO2. Cells grown from the explants were then transferred to medium with 10% serum, and at the 4th to 10th passage (1:3 splits) they were utilized for the experiments, unless otherwise indicated. Alternatively, cells from the 4-8th passage stored under liquid nitrogen were used to reinitiate the cultures, and used for incubations on the following 2-4 passages. These cultures are considered to consist mainly of smooth muscle cells from the penis based on morphological and cytoimmunochemical criteria.
All experiments were conducted at 90-100% cell confluence on "Primaria" cultureware, usually 24-well plates, adding or not the inducers indicated in each experiment. When not specifically stated, the standard binary induction mix consisted of bacterial lipopolysaccharide (LPS) (10 ug/ml) and recombinant murine […] (INF-θ) (250 U/ml). Other substances to be tested were added as indicated to the serum-containing medium, and the incubation proceeded for the times indicated. The medium was always collected and stored for an indirect measurement of NO production based on the determination of its conversion into nitrites. The procedure was based on the application of the Greiss reagent, using 250 ul of the medium mixed with an equal volume of reagent. Each experimental condition was carried out in triplicate.

cNOS, iNOS = conditions: cited from earlier work
[2] = supplemented with 1 or 10 ug/ml LPS, 48 hr incubation

COC(=O)[C@@H](N)CCCNC(=N)N[N+](=O)[O-] [L-NAME, N-nitro-L-arginine methyl ester]
fraction of maximal intracavernosal pressure remaining after L-NAME (Male Fischer 344 rats; adult rats treated with inducers, L-NAME 2 mg/kg, EFS 10 volts): 39%
fraction of maximal intracavernosal pressure remaining after L-NAME (Male Fischer 344 rats; adult rats without inducer treatment (separate study)): 62%
fraction of maximal intracavernosal pressure remaining after L-NAME (Male Fischer 344 rats; old rats treated with inducers, L-NAME 2 mg/kg, EFS 10 volts): 18%
fraction of maximal intracavernosal pressure remaining after L-NAME (Male Fischer 344 rats; old rats without inducer treatment (separate study)): 30%
inhibition of the erectile response (Male Fischer 344 rats; non-respondent rats after 14 days inducer treatment): normal
inhibition of the erectile response (Male Fischer 344 rats; respondent animals after 14 days inducer treatment, three age groups): over 95%
fraction of maximal intracavernosal pressure remaining after L-NAME (Male Fischer 344 rats; very old rats treated with inducers, L-NAME 2 mg/kg, EFS 10 volts): 28%
fraction of maximal intracavernosal pressure remaining after L-NAME (Male Fischer 344 rats; very old rats without inducer treatment (separate study)): 23%
inhibition of NOS activity in penile cytosol (penile NOS; 2 mM): 60-70%
inhibition at 2000 µM ([1]; Rattus norvegicus, 2 mM, RPSMC treated with standard induction mix, read-out: inhibition of nitrite release): ≤ 85%

N=C(NCCC[C@H](N)C(=O)O)N[N+](=O)[O-] [L-nitroarginine]
potency as inhibitor of cNOS relative to iNOS (cNOS, iNOS): 1000 fold

N=C(N)NN [aminoguanidine]
effect on NOS activity in penile cytosol (penile NOS; 0.3 mM): not affected
isoform preference of NOS inhibition (cNOS, iNOS; specificity varies with the cell type): preferential inhibitor for iNOS

IL-1β: recombinant human interleukin-1 β
effectiveness compared with 500 U/ml INF-θ ([1]; 5 ng/ml with 10 ug/ml LPS, 48 hr): slightly more effective

TNF-α
effect on nitrite production ([1]; up to 500 u/ml, presence or absence of LPS, 48 hr): did not have any effect

B1: INF-θ: recombinant murine interferon-θ (in vitro); recombinant rat interferon-θ (IFN-γ) in vivo (protein, UniProt P01580 23-155, looked up)
Interferon gamma: HGTVIESLESLNNYFNSSGIDVEEKSLFLDIWRNWQKDGDMKILQSQIISFYLRLFEVLKDNQAISNNISVIESHLITTFFSNSKAKKDAFMSIAKFEVNNPQVQRQAFNELIRVVHQLLPESSLRKRKRSRC
modifications: rat IFN-gamma used in vivo
nitrites in culture medium, maximum ([1]; 50 to 500 U/ml, absence of LPS, 48 hr incubation): ≤ 45 µM
induction relative to the basal level [1, 2]: ~20 fold
nitrites in culture medium [1, 2]: up to 120 uM
